Assay results reported in patent publication US11986480B2, “Heterocyclic compound” (TOHOKU UNIVERSITY, priority 2017, dated 2024).
One block for each compound: values may come before it.

How the values were obtained:
[1] = biological target: T1, FKBP12 (Homo sapiens, UniProt P62942); test: Test Example 3: HeLa cells, Western blot FKBP12/actin (Testing Method C); type: cell-based; settings: FKBP12, 1 uM, 24 hours, 1 or less = degradation promoted
T1 construct: endogenous in cells; host or cells: HeLa
Protocol: (§1) Test Example 3: Evaluation Using HeLa Cell (Testing Method C)
(§2) HeLa cells were inoculated to Dulbecco's Modified Eagle Medium (DMEM) and cultured for 24 hours. A test compound (specifically, compounds of Examples 47 to 52, 59 and 60) was added thereto at the final concentration shown in Table 2, followed by incubation for 24 hours under conditions of 37° C./5% CO2. The cells were washed with PBS three times and treated with a cell lysis solution containing a proteolytic enzyme inhibitor to obtain a cell extract. The cell extract was subjected to SDS-PAGE. After the electrophoresis, Brd4, FKBP12 or MetAP2 and actin were detected by Western blot. The ratio of the Brd4, FKBP12 or MetAP2/actin value of the drug-treated cells to the Brd4, FKBP12 or MetAP2/actin value of a control group in drug-untreated cells was regarded as an activity value. A value of 1 or less represents that degradation of Brd4, FKBP12 or MetAP2 was promoted.

[2] = biological target: T2, MetAP2 (Homo sapiens, UniProt P50579); test: Test Example 3: HeLa cells, Western blot MetAP2/actin (Testing Method C); type: cell-based; settings: MetAP2, 0.1 uM, 24 hours, 1 or less = degradation promoted
T2 construct: endogenous in cells; host or cells: HeLa
Protocol: as §1, §2

[3] = system: EmGFP-HaloTag; test: Test Example 1: HeLa cells stably expressing EmGFP-HaloTag, Western blot GFP/actin (Testing Method A); type: cell-based; settings: 10 uM, 24 hours, 1 or less = degradation promoted
Protocol: Test Example 1: Evaluation Method Using Cell Stably Expressing EmGFP-HaloTag (Testing Method A)
HeLa cells stably expressing EmGFP-HaloTag were inoculated to Dulbecco's Modified Eagle Medium (DMEM) and cultured for 24 hours. Then, a test compound (specifically, compounds of Examples 1 to 7, 9 to 11, 13 to 15, 17 to 20, 24 to 27, 29, 32 to 33, 36 to 42, 44 to 46 and 56) was added thereto at the final concentration shown in Table 2, followed by incubation for 24 hours under conditions of 37° C./5% CO2. The cells were washed with PBS three times and treated with a cell lysis solution containing a proteolytic enzyme inhibitor to obtain a cell extract. The cell extract was subjected to SDS-PAGE. After the electrophoresis, GFP and actin were detected by Western blot. The ratio of the GFP/actin value of the drug-treated cells to the GFP/actin value of a control group in drug-untreated cells was regarded as an activity value. A value of 1 or less represents that degradation of EmGFP-HaloTag was promoted.

[4] = system: EmGFP-HaloTag; test: Test Example 5: Atg5+/+ MEF cells overexpressing EmGFP-HaloTag, Western blot GFP/actin; type: cell-based, mouse; settings: Atg5 WT MEF, 10 μM
Protocol: (§3) Test Example 5: Evaluation Using Atg5KO MEF
(§4) Atg5^−/− mouse embryonic fibroblast (MEF) cells or Atg5^+/+ MEF cells were inoculated to Dulbecco's Modified Eagle Medium (DMEM) and cultured for 24 hours. Cells overexpressing EmGFP-HaloTag were obtained by transfection with a plasmid pCMV-EmGFP-HaloTag (SEQ ID NO: 1) encoding EmGFP-HaloTag. On the next day, the compound of Example 56 was added thereto at a final concentration of 10 μM, followed by incubation for 24 hours under conditions of 37° C./5% CO2. The cells were washed with PBS three times and treated with a cell lysis solution containing a proteolytic enzyme inhibitor to obtain a cell extract. The cell extract was subjected to SDS-PAGE. After the electrophoresis, GFP and actin were detected by Western blot. The ratio of the GFP/actin value of the drug-treated cells to the GFP/actin value of a control group in drug-untreated cells was regarded as an activity value. A value of 1 or less represents that degradation of EmGFP-HaloTag was promoted.

[5] = system: EmGFP-HaloTag; test: Test Example 5: Atg5-/- MEF cells overexpressing EmGFP-HaloTag, Western blot GFP/actin; type: cell-based, mouse; settings: Atg5 KO MEF, 10 μM
Protocol: as §3, §4

T1 sequence (P62942 whole entry): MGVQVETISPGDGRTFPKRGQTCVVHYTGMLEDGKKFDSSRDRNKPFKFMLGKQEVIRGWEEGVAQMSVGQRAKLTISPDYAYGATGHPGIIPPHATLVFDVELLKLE
T2 sequence (P50579 whole entry): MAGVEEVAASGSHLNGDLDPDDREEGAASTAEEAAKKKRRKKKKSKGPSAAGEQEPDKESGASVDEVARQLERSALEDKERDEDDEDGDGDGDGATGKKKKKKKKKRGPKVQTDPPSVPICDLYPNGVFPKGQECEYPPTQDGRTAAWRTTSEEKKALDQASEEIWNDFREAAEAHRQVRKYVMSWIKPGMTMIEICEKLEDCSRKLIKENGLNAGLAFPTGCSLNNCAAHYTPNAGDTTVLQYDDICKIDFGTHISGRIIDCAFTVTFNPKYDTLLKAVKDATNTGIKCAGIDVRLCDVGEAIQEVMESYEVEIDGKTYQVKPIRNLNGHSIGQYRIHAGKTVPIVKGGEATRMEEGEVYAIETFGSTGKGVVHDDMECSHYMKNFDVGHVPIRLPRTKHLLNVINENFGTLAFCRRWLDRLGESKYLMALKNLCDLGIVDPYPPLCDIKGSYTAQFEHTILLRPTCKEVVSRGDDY

- Activity value (FKBP12/actin of drug-treated cells relative to drug-untreated control) [1]: 0.5
Structure (SMILES): CCC(C)(C)C(=O)C(=O)N1CCCCC1C(=O)O[C@H](CCc1ccc(OC)c(OC)c1)c1cccc(NC(=O)CCC(=O)NCCCOCCOCCOCCCNC(=O)[C@H](CSc2nc3c(=O)[nH]c(N)nc3n2Cc2ccc(F)cc2)NC(C)=O)c1 (stereo partly drawn) [Example 59, (1R)-1-(3-((18-((N-Acetyl-S-(2-amino-9-(4-fluorobenzyl)-6-oxo-6,9-dihydro-1H-purin-8-yl)-L-cysteinyl)amino)-4-oxo-9,12,15-trioxa-5-azaoctadecan-1-oyl)amino)phenyl)-3-(3,4-dimethoxyphenyl)propyl 1-(3,3-dimethyl-2-oxopentanoyl)piperidine-2-carboxylate]

- Activity value (MetAP2/actin of drug-treated cells relative to drug-untreated control) [2]: 0.7
Structure (SMILES): CO[C@@H]1[C@H](OC(=O)NCCCOCCOCCOCCCNC(=O)[C@H](CSc2nc3c(=O)[nH]c(N)nc3n2Cc2ccc(F)cc2)NC(C)=O)CC[C@]2(CO2)[C@H]1[C@@]1(C)O[C@@H]1CC=C(C)C [Example 60, (3R,5S,6R)-5-Methoxy-4-((2R,3R)-2-methyl-3-(3-methylbut-2-en-1-yl)oxiran-2-yl)-1-oxaspiro[2.5]oct-6-yl (3-(2-(2-(3-((N-acetyl-S-(2-amino-9-(4-fluorobenzyl)-6-oxo-6,9-dihydro-1H-purin-8-yl)-L-cysteinyl)amino)propoxy)ethoxy)ethoxy)propyl)carbamate]

Structure (SMILES): CC(=O)N[C@@H](CSc1nc2c(=O)[nH]c(N)nc2n1Cc1ccc(F)cc1)C(=O)NCCOCCOCCOCCOCCOCCCCCCCl [Example 56, N^2-Acetyl-S-(2-amino-9-(4-fluorobenzyl)-6-oxo-6,9-dihydro-1H-purin-8-yl)-N-(21-chloro-3,6,9,12,15-pentaoxahenicos-1-yl)-L-cysteinamide]
- Activity value (GFP/actin of drug-treated cells relative to drug-untreated control) [3]: 0.55
- Activity value (GFP/actin of drug-treated cells relative to drug-untreated control) ([4]; 0h): 1.0
- Activity value (GFP/actin of drug-treated cells relative to drug-untreated control) ([4]; 24 h): 0.3
- Activity value (GFP/actin of drug-treated cells relative to drug-untreated control) ([5]; 0h): 1.0
- Activity value (GFP/actin of drug-treated cells relative to drug-untreated control) ([5]; 24 h): 1.1
